{"source": "patent US12551438B2", "about": "“Nanobowl-supported drug-loaded liposome, preparation method therefor and application thereof” (priority 2020, dated 2026)", "key": {"4T1 breast cancer": {"system": "4T1 breast cancer", "procedure": "• 1) 4T1 cell culture solution: DMEM basal medium, 1 penicillin streptomycin double antibody, 10% fetal bovine serum; • 2) 4% paraformaldehyde solution: with PBS (0.01 M) of pH 7.4 as the solvent, weighing 40 g of paraformaldehyde and placing into 800 mL of PBS solution, shaking and dissolving in a constant temperature shaker at 60° C. overnight; after the solid of paraformaldehyde is completely dissolved, stopping heating, balancing to room temperature, and adding PBS again to dilute the volume to 1 L; • 3) 1% sodium pentobarbital anesthetic: weighing 100 mg pentobarbital sodium, adding into 10 mL ultrapure water, and vortexing until it is fully dissolved. II. Experimental Method 1. Establishment of Orthotopic Inoculation Model for 4T1 Breast Cancer 1.1 Preparation of 4T1 Cell Suspension • 1) Taking a T-75 culture flask containing 4T1 cells, using a pipette to suck out the cell culture solution in the culture flask, and adding 5 mL of DPBS to rinse for 1-2 times to remove the residual culture solution; • 2) adding 2 mL of 0.25% trypsin, shaking the culture flask back and forth, so that the trypsin uniformly covers the bottom surface of the culture flask, and incubating in a constant temperature incubator containing 5% CO2 at 37° C. for 3 min; • 3) adding 10 mL serum-free cell culture medium, diluting trypsin and stop digestion; • 4) using a pipette to blow and beat the cell suspension to evenly disperse it to obtain a single cell suspension, taking 5 μL of cell suspension and adding placental blue dye solution with the same volume, and using an Invitrogen life countess cell counter to count the cells of cell suspension; • 5) centrifuging at 4° C. and 800 g for 5 min, discarding the supernatant, adding an appropriate amount of serum-free cell culture medium according to the intracellular concentration calculated previously, gently blowing and beating the cell block with a pipette to fully disperse it to prepare a single cell suspension, and the final concentration of cell suspension is: 1.6×10^7/mL; • 6) dispensing the 4T1 cell suspension into sterile 2 mL centrifuge tubes and storing at 4° C. until use. 1.2 BALB/c Female Mice Inoculated Orthotopically with 4T1 Cells • 1) On the day before inoculation, removing the hair on the right side of the abdomen of the mice to prepare the skin for the next day surgery; • 2) the next day, injecting the skin-prepared mice intraperitoneally with 1% pentobarbital anesthetic 100 μL; • 3)after complete anesthesia, fixing the limbs, wetting the right side of the abdomen with normal saline, and then using a scalpel to make a light incision on the abdomen; • 4) using tweezers to clamp out the 4th mammary fat pad located at the root of right thigh, and injecting 50 μL of 4T1 single cell suspension prepared above; • 5) loosening the tweezers, positioning the fat pad, and then suturing the abdominal wound; • 6) at the end of inoculation, returning the mice to their cages and the front leg of each mouse was taped with a label tape. 2. Animal Grouping and Dosing Regimen • 1) four days after inoculation, tumor volume was determined using vernier calipers: the longest and shortest diameters (L, W) of the tumor were measured every other day, and the tumor volume was calculated according to the following formula:\n[formula] • 2) after the tumor volume grew to 80 mm^3, it was evenly divided into the following 5 experimental groups according to the size of tumor volume: • (1) Saline group (Saline) • (2) Blank nanobowls@liposomes group (NB@LP) • (3) Doxorubicin hydrochloride group (Dox) • (4) Common Dox-liposome group (DLP) • (5) Nanobowls@Dox-liposome group (NB@DLP) • 3) On the 8th, 11th and 14th day after inoculation, the corresponding drugs were intravenously injected into the tail vein of each experimental group, and the corresponding drugs were administered to each group at a dose of 4 mg/kg of doxorubicin. 3."}, "[1]": {"system": "important organs of tumor-bearing mice", "conditions": "mouse, in vivo", "source_text": "(§1) [formula] • 2) after the tumor volume grew to 80 mm^3, it was evenly divided into the following 5 experimental groups according to the size of tumor volume: • (1) Saline group (Saline) • (2) Blank nanobowls@liposomes group (NB@LP) • (3) Doxorubicin hydrochloride group (Dox) • (4) Common Dox-liposome group (DLP) • (5) Nanobowls@Dox-liposome group (NB@DLP) • 3) On the 8th, 11th and 14th day after inoculation, the corresponding drugs were intravenously injected into the tail vein of each experimental group, and the corresponding drugs were administered to each group at a dose of 4 mg/kg of doxorubicin. 3. Monitoring of Mouse Body Weight and Tumor Volume • 1) determining body weight and tumor length and diameter every 2 days after the first dose of group, calculating tumor volume, and recording and summarizing all results; • 2) using GraphPad Prism 7.0 medical mapping software for data induction, statistical analysis, and making charts. 4. Immunohistochemical Staining of Tissue Sections • 1) after the last intravenous administration, selecting several mice in each experimental group, after sacrifice, dissecting and removing tumor tissues and important organs of mice, and fully immersing in 4% paraformaldehyde solution for fixation; • 2) during fixation, replacing fresh 4% paraformaldehyde solution several times to wash out residual blood. […]"}, "4T1 tumor tissue": {"system": "4T1 tumor tissue", "assay": "TUNEL and PCNA immunohistochemical staining of tumor tissue of 4T1 tumor-bearing mice", "assay_type": "in vivo, mouse", "conditions": "tumor tissue after treatment", "source_text": "as §1"}, "4T1 breast cancer cells": {"system": "4T1 breast cancer cells", "assay": "Cell viability by CCK-8 method", "assay_type": "cell-based, mouse", "conditions": "4T1 cells, doxorubicin 0.01-10.00 μg/mL, 48 h", "procedure": "[formula] • 5) collecting the nanobowls@Dox-liposomes at each time point by centrifugation (24000 g, 15 min) and determining the particle size and potential by DLS after redispersion. 1.2. […] Incubating the culture plate in a 37° C., 5% CO2 constant temperature cell incubator for 12 h; 2) preparing different nanoparticle structures in a serum-free culture medium with a drug concentration gradient to prepare a culture medium containing different concentrations of liquid medicine, sucking out the old culture medium in the culture plate, and then adding 200 μL of a new culture medium containing the liquid medicine to each well; • 3) placing the 96-well plate containing cells in a 37° C., 5% CO2 constant temperature cell incubator for culture for appropriate time; • 4) diluting CCK-8 liquid with serum-free culture medium by a factor of 10 according to 1:10, sucking out the old culture medium in the culture plate, and adding 100 μL culture medium containing CCK-8 into each well; • 5) incubating the culture plate in a 37° C., 5% CO2 constant temperature cell incubator for 0.5-1 h; • 6) determining the absorbance of each well with a microplate reader at a wavelength of 450 nm. […]"}}, "note": "Structures can show the parent of a compound that is named as a salt.", "data": [{"smiles": "COc1cccc2c1C(=O)c1c(O)c3c(c(O)c1C2=O)C[C@@](O)(C(=O)CO)C[C@@H]3O[C@H]1C[C@H](N)[C@H](O)[C@H](C)O1", "note": "[Dox, doxorubicin hydrochloride]", "values": [{"measurement": "tumor volume growth", "setting": "4T1 breast cancer; 4 mg/kg doxorubicin i.v. tail vein, days 0, 3 and 6", "result": "could not achieve the expected treatment of tumor"}, {"measurement": "median survival time", "setting": "4T1 breast cancer; 4T1 breast cancer mice", "result": 27, "unit": "days"}, {"measurement": "Median survival", "setting": "4T1 breast cancer; 4T1 breast cancer mice, 4 mg/kg doxorubicin i.v. x3", "result": 27, "unit": "days"}, {"measurement": "Prolong duration", "setting": "4T1 breast cancer; median survival versus saline", "result": 3, "unit": "days"}, {"measurement": "Prolonged rate (%)", "setting": "4T1 breast cancer; median survival versus saline control", "result": 12.50, "unit": "%"}, {"measurement": "body weight of mice during administration", "setting": "4T1 breast cancer; mouse, in vivo", "result": "significant decrease"}, {"measurement": "prolongation of median survival time compared with the control group", "setting": "4T1 breast cancer; versus saline control", "result": 3, "unit": "days"}, {"measurement": "toxicity to the heart (pathological sections)", "setting": "[1]", "result": "more toxic to the heart, leading to the lysis and rupture of cardiomyocytes"}, {"measurement": "effect of promoting tumor cell apoptosis (TUNEL) and inhibiting proliferation (PCNA)", "setting": "4T1 tumor tissue", "result": "worst effect"}, {"measurement": "effect on cell viability", "setting": "4T1 breast cancer cells", "result": "significantly stronger than that of common Dox-liposomes and nanobowls@Dox-liposomes"}]}]}
